# Measurements published in patent publication US20090012052A1, “METHOD FOR TREATING ER+ BREAST CANCER” (Ore Pharmaceuticals Inc., priority 2006, published 2009).
# Entries after “also recorded” stand apart in the source; their conditions may differ.
# Legend:
# [1] = test system: T47D (human ER+ breast cancer cell line) xenografts; assay: Growth of ER+ breast cancer cell line (T47D) xenografts in mice; format: in vivo; conditions: NODscid mice with estrogen pellet; p.o. once daily 3-5 weeks; candesartan cilexetil 10/30/100, irbesartan 30/100/300, tamoxifen 0.1/0.3/1.0 mg/kg
# Description: Female NODscid mice of age 5-6 weeks received a subcutaneous estrogen pellet implant (1.7 mg). Twenty four hours after estrogen pellet implantation, the mice received tumor implantation by subcutaneous injection of T47D cells to the flank (approximately 2.5×10^6 cells/mouse). The mice were ear-notched for identification and housed 4 animals per cage. The tumor implantation site was palpated up to 3 times weekly to monitor tumor growth. One hundred animals in which tumor implantation was successful (7-12 days after injection) were randomized to ten treatment groups, 10 animals per group:
# Tumors were measured 3 times weekly using digital calipers. Body weight was measured twice weekly. Clinical observations were conducted weekly. At the conclusion of the study or when mice attained a maximum tumor burden of about 3.0 cm^3 or about 10% of body weight, the mice were sacrificed, tumors were harvested and a terminal blood sample was collected.
# ER = conditions: T47D (ER+, PR+) cells; cited from earlier work
# PR = conditions: T47D (ER+, PR+) cells; cited from earlier work
# T47D cells [2] = conditions: cited from earlier work
# T47D cells [3] = assay: Cell proliferation assay (RT-CES impedance), ER+ cell line T47D; format: cell-based, human; conditions: for Effect on Ang II-induced growth / Effect on Ang II-induced cell proliferation: T47D
# Description: (§1) Unless otherwise indicated, cell proliferation assays described in Examples 2-5 were performed using a Real-Time Cell Electronic Sensing (RT-CES™ 96×) instrument from ACEA Bioscience (San Diego, Calif.). This instrument utilizes an electronic readout (impedance) to non-invasively quantify adherent cell proliferation and viability in real time.
# (§2) Cells were seeded in 96-well microtiter plates containing microelectronic sensor arrays (96E plates; ACEA). Cells were maintained in RPMI 1640 (Invitrogen, Carlsbad, Calif.) supplemented with 10% fetal bovine serum (FBS) (Hyclone, Logan, Utah) and were cultured at 37° C. in a humidified atmosphere containing 5% CO2. For proliferation assays, cells were seeded (20,000 cells/well), allowed to attach and grown overnight in standard growth medium. Cells were then serum-starved for 8 hours prior to the proliferation assay in presence or absence of test compound(s). The proliferation response was continuously monitored by measuring the impedance change in each well for the indicated number of hours. Data are expressed as cell index (CI) change relative to time in culture, reflecting measured changes in electrical impedance. Each value shown is an average of 6 wells. Where shown, statistical analysis was performed by calculation of standard deviation and P values were generated by a Student's two-tailed t-test.
# (§3) T47D (American Type Culture Collection, Manassas, Va. (ATCC) cat. HTB-133) is an ER+ cell line derived from human mammary gland ductal carcinoma. Other ER+ cell lines used in studies reported herein include ZR-75 and HCC70. HCC1143 (ATCC cat. CRL-2321) is an ER− cell line also derived from human mammary gland ductal carcinoma.
# (§4) Following the 8 hour starvation phase, either Ang II (Sigma-Aldrich), 500 nM, or vehicle control was added to the cell culture. […] Ang II also stimulated proliferation of ER+ cell lines HCC70, by approximately 30%, and ZR-75, by approximately 35%, relative to vehicle control (data not shown).
# (§5) A cell proliferation assay procedure was followed as described in Example 2. Following the 8 hour starvation phase, either Ang II (Sigma-Aldrich), 500 nM, with or without the AT1 receptor antagonist telmisartan, 1.25 μM or 5 μM, or vehicle control was added to the cell culture.
# (§6) A cell proliferation assay procedure was followed as described in Example 2. Following the 8 hour starvation phase, either Ang II (Sigma-Aldrich), 500 nM, with or without the AT1 receptor antagonist candesartan, 5 μM, or vehicle control was added to the cell culture.
# (§7) A cell proliferation assay procedure was followed as described in Example 2. Following the 8 hour starvation phase, either Ang II (Sigma-Aldrich), 500 nM, with or without the AT1 receptor antagonist irbesartan, 5 μM, or vehicle control was added to the cell culture.
# A cell proliferation assay was conducted by a procedure substantially as described in Example 2, using the ER+ human breast cancer cell line T47D. Following an eight-hour serum starvation phase, test substance was added to the cell culture to provide each of the following treatments: […]
# HCC1143 cells = assay: Cell proliferation assay (RT-CES impedance), ER- cell line HCC1143; format: cell-based, human; conditions: for Effect on cell proliferation: HCC1143
# Description: as §1, §2, §3, §4, §5, §6, §7
# HCC70 cells = assay: Cell proliferation assay (RT-CES impedance), ER+ cell line HCC70; format: cell-based, human
# Description: as §1
# as §2, with “t-test. […]” for “t-test.”
# ZR-75 cells = assay: Cell proliferation assay (RT-CES impedance), ER+ cell line ZR-75; format: cell-based, human
# Description: as §1
# as §2, with “t-test. […]” for “t-test.”
# HCC1395 cells = assay: Cell proliferation assay (RT-CES impedance), cell line HCC1395; format: cell-based, human
# Description: as §1
# as §2, with “t-test. […]” for “t-test.”
# HCC1954 cells = assay: Cell proliferation assay (RT-CES impedance), cell line HCC1954; format: cell-based, human
# Description: as §1
# as §2, with “t-test. […]” for “t-test.”
# HCC1937 cells = assay: Cell proliferation assay (RT-CES impedance), cell line HCC1937; format: cell-based, human
# Description: as §1
# as §2, with “t-test. […]” for “t-test.”
# HCC38 cells = assay: Cell proliferation assay (RT-CES impedance), cell line HCC38; format: cell-based, human
# Description: as §1
# as §2, with “t-test. […]” for “t-test.”
# T47D cell line = conditions: cited from earlier work
# [4] = test system: cells cultured from invasive ductal carcinomas; conditions: cited from earlier work
# [5] = test system: breast cancer epithelial cell line MCF-7; conditions: cited from earlier work
# [6] = administered for 5 years; women having risk factors; cited from earlier work
# [7] = Ang II 500 nM with AT1 receptor antagonist 5 μM
# [8] = Ang II 500 nM with AT1 receptor antagonist 5 μM, data not shown
# [9] = Ang II 500 nM with telmisartan 1.25 μM or 5 μM
molecule,measurement,setting,value
CCOc1nc2cccc(C(=O)OC(C)OC(=O)OC3CCCCC3)c2n1Cc1ccc(-c2ccccc2-c2nnn[nH]2)cc1 (centres unmarked) [candesartan cilexetil],Growth in tumor volume,[1],reduced in a dose-dependent fashion
NCCCC[C@H](N[C@@H](CCc1ccccc1)C(=O)O)C(=O)N1CCC[C@H]1C(=O)O [lisinopril],ER protein concentration,ER,No such effects
same,PR protein concentration,PR,No such effects
same,[3H]thymidine incorporation (an index of cell proliferation),T47D cells [2],No such effects
"Ang II: peptide angiotensin II, a major regulator of blood pressure and cardiovascular homeostasis (Sigma-Aldrich) (DRVYIHPF; Angiotensin-2; UniProt P01019 25-32, looked up)",Effect of Ang II on cell growth/proliferation,"T47D cells [3]; T47D (ER+), Ang II 500 nM vs vehicle control, after 8 h serum starvation",significantly stimulated growth; also recorded: substantial increase in cell proliferation
same,Ang II proliferation response,T47D cells [3]; cell line T47D,positive
same,Effect of Ang II on cell growth/proliferation,"HCC1143 cells; HCC1143 (ER-), Ang II 500 nM vs vehicle control",No effects
same,Ang II proliferation response,HCC1143 cells; cell line HCC1143,negative
same,Stimulation of proliferation relative to vehicle control,"HCC70 cells; HCC70 (ER+), Ang II 500 nM, data not shown",approximately 30%
same,Ang II proliferation response,HCC70 cells; cell line HCC70,positive
same,Stimulation of proliferation relative to vehicle control,"ZR-75 cells; ZR-75 (ER+), Ang II 500 nM, data not shown",approximately 35%
same,Ang II proliferation response,ZR-75 cells; cell line ZR-75,positive
same,Ang II proliferation response,HCC1395 cells,negative
same,Ang II proliferation response,HCC1954 cells,negative
same,Ang II proliferation response,HCC1937 cells,negative
same,Ang II proliferation response,HCC38 cells,negative
same,Stimulation of cell growth by Ang II,T47D cell line,significant stimulation of cell growth
same,Proliferation stimulated by Ang II,[4]; ER and PR positive,stimulated in a dose-dependent manner
same,Proliferative effect of Ang II,[5],dose-dependent proliferative effect
"CCCCc1nc(Cl)c(CO)n1Cc1ccc(-c2ccccc2-c2nnn[nH]2)cc1 [losartan, 2-n-butyl-4-chloro-5-hydroxymethyl-1-[[2′-(1H-tetrazol-5-yl)biphenyl-4-yl]methyl]imidazole]",Effect on Ang II-stimulated proliferation,[4],blocked
same,Effect on Ang II proliferative effect,[5],blocked
C[C@H](CS)C(=O)N1CCC[C@H]1C(=O)O [Captopril],ER protein concentration,ER,reduced
same,PR protein concentration,PR,increased
same,[3H]thymidine incorporation (an index of cell proliferation),T47D cells [2],inhibited
"CCOc1nc2cccc(C(=O)O)c2n1Cc1ccc(-c2ccccc2-c2nnn[nH]2)cc1 [candesartan, 2-ethoxy-1-[4-[2-(1H-tetrazol-5-yl)phenyl]benzyl]-7-benzimidazole-carboxylic acid]",Effect on Ang II-induced growth,T47D cells [3]; [7],significantly inhibited
same,Effect on cell proliferation,HCC1143 cells; [8],No effects
"CCCCC1=NC2(CCCC2)C(=O)N1Cc1ccc(-c2ccccc2-c2nnn[nH]2)cc1 [irbesartan, 2-n-butyl-4-spirocyclopentane-1-[(2′-(tetrazol-5-yl)bipheny-4-yl)methyl]-2-imidazolin-5-one]",Effect on Ang II-induced growth,T47D cells [3]; [7],significantly inhibited
same,Effect on Ang II-induced cell proliferation,T47D cells [3]; irbesartan 5 μM + Ang II 500 nM,reversed the Ang II effect
same,Effect on cell proliferation,HCC1143 cells; [8],No effects
same,Growth in tumor volume,[1],the lowest dose tested (30 mg/kg) appeared to give the greatest effect
CC/C(=C(\c1ccccc1)c1ccc(OCCN(C)C)cc1)c1ccccc1 [tamoxifen],Effect on Ang II-induced cell proliferation,T47D cells [3]; tamoxifen 7.5 μM + Ang II 500 nM,reduced cell proliferation to a level lower than that of vehicle control
same,Growth in tumor volume,[1],reduced in a dose-dependent fashion
same,Reduction of incidence of invasive breast cancer,[6],~50%
"CCCc1nc2c(C)cc(-c3nc4ccccc4n3C)cc2n1Cc1ccc(-c2ccccc2C(=O)O)cc1 [telmisartan, 4′-[[4-methyl-6-(1-methyl-2-benzimidazolyl)-2-propyl-1-benzimidazol-yl]methyl]-2-biphenylcarboxylic acid]",Effect on Ang II-induced growth,T47D cells [3]; [9],significantly inhibited
same,Effect on cell proliferation,HCC1143 cells; [9],No effects
